Reference: the NIST ThermoML archive (doi:10.1021/je034142v)
“And” between values parts separate entries of the source, which are not always exact repeats. Equal entries are not always repeated. ± gives the expanded uncertainty stated by the source.

Settings: Liquid

`C1CCCC1` [cyclopentane] showed a viscosity (257.86 K, 100 kPa) of 0.6878 ± 0.014 mPa·s, a viscosity (257.87 K, 100 kPa) of 0.6871 ± 0.014 mPa·s and a viscosity (258.01 K, 100 kPa) of 0.6851 ± 0.014 mPa·s. For the same compound, the viscosity (262.93 K, 100 kPa) was 0.6393 ± 0.013 mPa·s and 0.6392 ± 0.013 mPa·s, the viscosity (262.93 K, 3100 kPa) was 0.6574 ± 0.013 mPa·s and the viscosity (262.93 K, 5600 kPa) was 0.6719 ± 0.013 mPa·s. For the same compound, the viscosity (262.93 K, 7900 kPa) was 0.6858 ± 0.014 mPa·s, the viscosity (262.93 K, 10100 kPa) was 0.6987 ± 0.014 mPa·s and the viscosity (262.93 K, 25800 kPa) was 0.795 ± 0.016 mPa·s. For the same compound, the viscosity (262.93 K, 50800 kPa) was 0.9583 ± 0.019 mPa·s, the viscosity (262.93 K, 75700 kPa) was 1.137 ± 0.023 mPa·s and the viscosity (262.93 K, 100700 kPa) was 1.333 ± 0.027 mPa·s. The viscosity (262.93 K, 125800 kPa) was 1.546 ± 0.031 mPa·s, the viscosity (262.93 K, 150800 kPa) was 1.782 ± 0.036 mPa·s and the viscosity (262.93 K, 175800 kPa) was 2.04 ± 0.041 mPa·s. For the same compound, the viscosity (262.93 K, 200800 kPa) was 2.322 ± 0.047 mPa·s, the viscosity (262.93 K, 225900 kPa) was 2.629 ± 0.053 mPa·s and the viscosity (262.93 K, 250900 kPa) was 2.967 ± 0.059 mPa·s. For the same compound, the viscosity (262.93 K, 275800 kPa) was 3.333 ± 0.067 mPa·s, the viscosity (262.93 K, 300600 kPa) was 3.725 ± 0.075 mPa·s and the viscosity (262.99 K, 100 kPa) was 0.6384 ± 0.013 mPa·s and 0.6388 ± 0.013 mPa·s. For the same compound, the viscosity (262.99 K, 3100 kPa) was 0.6562 ± 0.013 mPa·s, the viscosity (262.99 K, 5600 kPa) was 0.6709 ± 0.013 mPa·s and the viscosity (262.99 K, 8100 kPa) was 0.6858 ± 0.014 mPa·s. For the same compound, the viscosity (262.99 K, 10800 kPa) was 0.7025 ± 0.014 mPa·s, the viscosity (262.99 K, 25800 kPa) was 0.7943 ± 0.016 mPa·s and the viscosity (262.99 K, 50800 kPa) was 0.9576 ± 0.019 mPa·s. It also gave a viscosity (262.99 K, 75700 kPa) of 1.136 ± 0.023 mPa·s, a viscosity (262.99 K, 100500 kPa) of 1.33 ± 0.027 mPa·s and a viscosity (262.99 K, 125500 kPa) of 1.543 ± 0.031 mPa·s. The viscosity (262.99 K, 150500 kPa) was 1.778 ± 0.036 mPa·s, the viscosity (262.99 K, 175500 kPa) was 2.032 ± 0.041 mPa·s and the viscosity (262.99 K, 200200 kPa) was 2.307 ± 0.046 mPa·s. For the same compound, the viscosity (263.03 K, 100 kPa) was 0.6386 ± 0.013 mPa·s and 0.639 ± 0.013 mPa·s, the viscosity (263.03 K, 10600 kPa) was 0.7005 ± 0.014 mPa·s and the viscosity (263.03 K, 20600 kPa) was 0.7608 ± 0.015 mPa·s. The viscosity (263.03 K, 30600 kPa) was 0.8231 ± 0.017 mPa·s, the viscosity (263.03 K, 40500 kPa) was 0.8873 ± 0.018 mPa·s and the viscosity (263.03 K, 50500 kPa) was 0.9555 ± 0.019 mPa·s. The viscosity (263.03 K, 60500 kPa) was 1.024 ± 0.021 mPa·s, the viscosity (263.03 K, 70500 kPa) was 1.095 ± 0.022 mPa·s and the viscosity (263.03 K, 80600 kPa) was 1.171 ± 0.024 mPa·s. It also gave a viscosity (263.03 K, 90400 kPa) of 1.246 ± 0.025 mPa·s, a viscosity (263.03 K, 100400 kPa) of 1.327 ± 0.027 mPa·s and a viscosity (263.03 K, 110500 kPa) of 1.41 ± 0.028 mPa·s. It also gave a viscosity (263.03 K, 120500 kPa) of 1.496 ± 0.03 mPa·s, a viscosity (263.03 K, 130500 kPa) of 1.585 ± 0.032 mPa·s and a viscosity (263.03 K, 140400 kPa) of 1.677 ± 0.034 mPa·s. It also gave a viscosity (263.03 K, 150400 kPa) of 1.774 ± 0.036 mPa·s, a viscosity (263.03 K, 160500 kPa) of 1.874 ± 0.038 mPa·s and a viscosity (263.03 K, 170500 kPa) of 1.977 ± 0.04 mPa·s. The viscosity (263.03 K, 180400 kPa) was 2.083 ± 0.042 mPa·s, the viscosity (263.03 K, 190300 kPa) was 2.193 ± 0.044 mPa·s and the viscosity (263.03 K, 200200 kPa) was 2.27 ± 0.046 mPa·s. For the same compound, the viscosity (268.01 K, 100 kPa) was 0.6016 ± 0.012 mPa·s and 0.5994 ± 0.012 mPa·s, the viscosity (268.01 K, 3000 kPa) was 0.6145 ± 0.012 mPa·s and the viscosity (268.01 K, 5500 kPa) was 0.6285 ± 0.013 mPa·s. The viscosity (268.01 K, 8100 kPa) was 0.6428 ± 0.013 mPa·s, the viscosity (268.01 K, 10600 kPa) was 0.6569 ± 0.013 mPa·s and the viscosity (268.01 K, 25900 kPa) was 0.745 ± 0.015 mPa·s. It also gave a viscosity (268.01 K, 50900 kPa) of 0.8969 ± 0.018 mPa·s, a viscosity (268.01 K, 75900 kPa) of 1.065 ± 0.021 mPa·s and a viscosity (268.01 K, 100700 kPa) of 1.243 ± 0.025 mPa·s. For the same compound, the viscosity (268.01 K, 125700 kPa) was 1.44 ± 0.029 mPa·s, the viscosity (268.01 K, 150600 kPa) was 1.657 ± 0.033 mPa·s and the viscosity (268.01 K, 175700 kPa) was 1.896 ± 0.038 mPa·s. The viscosity (268.01 K, 200700 kPa) was 2.151 ± 0.043 mPa·s, the viscosity (268.01 K, 225600 kPa) was 2.432 ± 0.049 mPa·s and the viscosity (268.01 K, 250800 kPa) was 2.742 ± 0.055 mPa·s. The viscosity (268.01 K, 275300 kPa) was 3.073 ± 0.062 mPa·s, the viscosity (268.01 K, 301000 kPa) was 3.447 ± 0.069 mPa·s and the viscosity (268.01 K, 325300 kPa) was 3.833 ± 0.077 mPa·s. For the same compound, the viscosity (268.01 K, 351200 kPa) was 4.283 ± 0.086 mPa·s, the viscosity (268.01 K, 378000 kPa) was 4.766 ± 0.095 mPa·s and the viscosity (273.15 K, 100 kPa) was 0.5601 ± 0.011 mPa·s and 0.561 ± 0.011 mPa·s. The viscosity (273.15 K, 3100 kPa) was 0.5756 ± 0.012 mPa·s, the viscosity (273.15 K, 5600 kPa) was 0.5886 ± 0.012 mPa·s and the viscosity (273.15 K, 8100 kPa) was 0.6022 ± 0.012 mPa·s. It also gave a viscosity (273.15 K, 10600 kPa) of 0.6155 ± 0.012 mPa·s, a viscosity (273.15 K, 25900 kPa) of 0.6979 ± 0.014 mPa·s and a viscosity (273.15 K, 50800 kPa) of 0.8418 ± 0.017 mPa·s. It also gave a viscosity (273.15 K, 75800 kPa) of 0.9972 ± 0.02 mPa·s, a viscosity (273.15 K, 100700 kPa) of 1.166 ± 0.023 mPa·s and a viscosity (273.15 K, 125500 kPa) of 1.349 ± 0.027 mPa·s. For the same compound, the viscosity (273.15 K, 150500 kPa) was 1.55 ± 0.031 mPa·s, the viscosity (273.15 K, 175500 kPa) was 1.769 ± 0.035 mPa·s and the viscosity (273.15 K, 200500 kPa) was 2.006 ± 0.04 mPa·s. For the same compound, the viscosity (273.15 K, 225300 kPa) was 2.266 ± 0.045 mPa·s, the viscosity (273.15 K, 250600 kPa) was 2.552 ± 0.051 mPa·s and the viscosity (273.15 K, 275800 kPa) was 2.864 ± 0.057 mPa·s. For the same compound, the viscosity (273.15 K, 300700 kPa) was 3.198 ± 0.064 mPa·s.
